Test results from patent publication US11213509B2, “Compositions and methods for treating traumatic brain injury” (Ischemix, LLC, priority 2017, dated 2022).

How the values were obtained:
[1] = tested on: fluid percussion model of diffused traumatic brain injury (TBI) in rats; assay: Limb placing test, fluid percussion model of diffused TBI; format: in vivo, rat; conditions: vs vehicle, p<0.001, starting 1 day following TBI
Description: On the day before TBI surgery (Day −1), rats were anesthetized with 3% isoflurane in a mixture of nitrous oxide and oxygen (2:1) for induction of anesthesia and then maintained at 1-3% isoflurane in a mixture of nitrous oxide and oxygen (2:1). The surgical site skin was shaved, and the rat was then placed in a stereotaxic frame. Buprenorphine SR, s.c, (0.9-1.2 mg/kg Zoopharm: Lot: BSR1-142111) and Cefazolin, i.p., (40-50 mg/kg; Hospira: Lot: 101D032) was given at this time. The skull was exposed through a midline incision. A parasagittal craniotomy (5 mm) using a trephine drill was performed at 1 mm posterior to bregma and 1 mm lateral to the midline (outer circumference). A sterile plastic injury tube (the plastic connector hub of a sterile needle cut 1 cm in length and trimmed to fill the craniotomy securely) was placed over the exposed dura and bonded by super glue to the skull. Dental cement was then poured around the injury tube to obtain a complete seal. After the dental cement had hardened, the injury tube was filled with sterile saline and the skin was closed by surgical clips. The animals were then returned to a clean home cage after recovery from the anesthesia.
On the day of TBI surgery (Day 0), rats were re-anesthetized with 3% isoflurane in a mixture of nitrous oxide and oxygen (2:1), intubated, connected to a respirator and ventilated with 1-2% isoflurane in a mixture of nitrous oxide and oxygen (2:1). […] The amplitude of the resulting pressure pulse was measured in atmospheres by a pressure transducer. […]
Dosing solutions were prepared in a blinded fashion with H, I, M, O and Z labels ready to use. […]
Limb placing tests were divided into both forelimb and hindlimb tests. For the forelimb-placing test, the examiner held the rat close to a tabletop and scored the rat's ability to place the forelimb on the tabletop in response to whisker, visual, tactile, or proprioceptive stimulation. For the hindlimb placing test, the examiner assessed the rat's ability to place the hindlimb on the tabletop in response to tactile and proprioceptive stimulation. […]

rat model of focal TBI = assay: Beam balance test, rat model of focal TBI (BCCI); format: in vivo
Excerpt: BCCI TBI to the medial frontal cortex (MFC) was induced by a cortical contusion device (Custom Design & Fabrication, Inc [CDF], Richmond, Va.). This device creates a reliable contusion injury to the exposed area of the brain with a brass-tipped impounder. (Hoffman et al., 1994). Rats were anesthetized with isoflurane (5%) (Novaplus™), and 02 (300 cm^3/min), and mounted in a stereotaxic frame. Under aseptic conditions, a sagittal incision was made in the scalp and the fascia retracted to expose the cranium. Then, a 6-mm diameter trephine drill was used to open the skull immediately anterior to the bregma. TBI of the MFC was made with a 5-mm-diameter rounded brass impactor attached to a computer-controlled piston propelled electronically with following parameters: velocity=2.5 m/s; depth=3 mm; duration=100 ms). After BCCI, any cortical surface hemorrhaging was controlled and the fascia and scalp sutured. […]
The beam balance test examined vestibulomotor reflex activity of the animals after injury. […] The animal was gently placed on a suspended narrow beam 1.5 cm wide with a rough surface and the duration for which it remained on the beam was measured with a maximum cutoff time of 60 sec. […]
Data are presented as mean±SEM and analyzed by one-way repeated measures Analysis of variance (ANOVA) in order to test the effects of treatment on beam balance times and Morris water maze performance. […]

With `CC(NC(=O)C(CCC(=O)O)NC(=O)CCCCC1CCSS1)C(=O)O` [CMX-2043, N—(R)-lipoyl-glutamylalanine] the “Limb placing test recovery” value ([1]; 15 mg/kg i.v. at 30 minutes and 24 hours after TBI) was “superior recovery compared to vehicle-treated animals”, the “Limb placing test recovery” value ([1]; 30 mg/kg i.v. at 30 minutes and 24 hours after TBI) was “superior recovery compared to vehicle-treated animals” and the “Limb placing test recovery” value ([1]; 45 mg/kg i.v. at 30 minutes and 24 hours after TBI) was “superior recovery compared to vehicle-treated animals”. For the same molecule, the “Treatment efficacy in beam balance motor test” value (rat model of focal TBI; 30 mg/kg intravenously) was “not in the beam balance motor test” and the Beam balance time (rat model of focal TBI; Day 3 following injury, 30 mg/kg IV, all groups) was “less than 3 seconds”.
